Test results from US4495201A, “Pharmaceutical composition and method for treating heart diseases therewith” (Institut Organicheskoi Khimii Imeni N.D. Zelinskogo, priority 1982, dated 1985).

Assays:
[1] = test system: left ventricle of the heart; assay: Intracardiac hemodynamics (intracavitary pressure); format: in vivo, rabbits; details: versus the composition
[2] = test system: zone of necrosis, perinecrotic zone and myocardium regions spaced from the place of infarction; assay: Experimental myocardial infarction in rabbits: histological, histochemical and electron-microscopic study; format: in vivo, rabbits of the Chinchilla variety; details: for effect on reparative processes in the zone of necrosis / organization of the post-infarction scar: comparison of preparations; for activity of lysis-ensuring enzymes: zone of necrosis and perinecrotic areas
Excerpt: The experiment on animals has been performed on 419 rabbits of the Chinchilla variety with experimentally-induced myocardial infarction produced by ligation of the front descending branch of the coronary artery.
The effect of the composition according to the present invention on the progress of the experimental myocardial infarction has been studied in comparison with the effect produced by inosine, potassium orotate, vitamin B12 with folic acid and retabolyl.
Histological, histochemical and electron-microscopic methods of investigation have been employed to study the zone of necrosis, perinecrotic zone and myocardium regions spaced from the place of infarction by 1, 3 and 7 days after operation. Furthermore, to determine the contractile ability of myocardium, measurements of intracavitary pressure have been performed. Dynamic electrocardiographic observation over the animals was carried out 7 times during the first day (prior to operation, 15, 30 minutes, 1, 2, 3 and 4 hours after the administration) and during the following days two times a day (before and one hour after the administration).
The study of the total cross-sectional patterns of a rabbit's heart has made it possible to precisely define these zones.
The first group of rabbits has been intramuscularly injected with the composition according to the present invention in the dose of 1 mg/kg in a day.
The second group of rabbits has been injected with inosine in a dose of 30 mg/kg intravenously daily once a day; for the first time 16 hours after the operation and for the last time 2 hours before slaughter (i.e. before the 7th day). The third group of rabbits has been given potassium orotate in a dose of 30 mg/kg in the same sequence as the previous preparation, i.e. up to the 7th day.
The fourth group of animals has been administered vitamin B12 3γ/kg in combination with folic acid in the same sequence.
The fifth group of rabbits has been administered an anabilic hormone of a prolonged action--retabolyl in a dose of 5 mg/kg of the bodyweight 1-2 times intramuscularly up to the 7th day.

Solubility and stability = format: physicochemical
central hemodynamics = assay: Central hemodynamics by radiocardiography in patients with myocardial infarction; format: in vivo; details: as compared to the control
Description: (§1) The composition according to the present invention is administered to the patients intramuscularly in a dose of from 25 to 50 mg once every three days.
On the 1th, 10th, 20th and 40th days of the disease the central hemodynamics was determined by the method of radiocardiography.

[3] = test system: insufficiency of blood circulation and post-infarctional aneurysm; assay: Clinical outcome: insufficiency of blood circulation and post-infarction aneurysm; format: in vivo, patients; details: comparison of the composition and inosine
Description: as §1
A further dynamic electrocardiographic observation is effected during the first day of injection of the composition (prior to injection and 1 and 2 hours thereafter), then once per 3 and later on--per 5 days. On the 1th, 10th, 20th and 40th days of the disease the central hemodynamics was determined by the method of radiocardiography. On the 10th and 40th days of the illness the contractile capacity of myocardium is assessed by methods of electro- and X-ray kymography. The biochemical control over the effect of the preparation was effected by determination, in dynamics in blood serum, of the products of decomposition of DNA, proline, hydroxyproline, transaminases. There was also analyzed the dynamics of normalization of leukocytosis, ESR (erythrocyte sedimentation rate), disappearance of aneosinophilia. The careful clinical assessment of the effect of the composition was also performed.

**Q.** What does the source list for `O=C(O)c1cc(O)nc(O)n1` [potassium orotate, 2,6-dihydroxypyrimidine-4-carboxylic acid]?
**A.** effect on formation of compensatory hyperfunction and hypertrophy of extrainfarction areas [1]: more marked effect; activity of lactatedehydrogenase in extra-infarction areas of myocardium [2]: slightly less pronounced effect; effect on reparative processes in the zone of necrosis / organization of the post-infarction scar [2]: still less pronounced effect; activity of reactions of pentose-phosphate shunt (glucoso-6-phosphatehydrogenase) ([2]; perinecrotic areas of myocardium): slightly increasing activity; activity of lysis-ensuring enzymes [2]: slightly increasing activity

**Q.** For `CCCCCCCCCC(=O)O[C@H]1CC[C@H]2[C@@H]3CCC4=CC(=O)CC[C@@H]4[C@H]3CC[C@]12C` [retabolyl, nandrolone decanoate], which “activity of lactatedehydrogenase in extra-infarction areas of myocardium” value [2] is on record?
**A.** slightly less pronounced effect

**Q.** And the “effect on reparative processes in the zone of necrosis / organization of the post-infarction scar” value [2]?
**A.** less pronounced

**Q.** Which results are given for `CC(C)=CCCC(C)=CCC(CCCN(C)C)C(=O)O` (stereo not shown) [4',5,9-trimethyl-2-(4'-aza-pentyl)decadi-4,8-ene acid]?
**A.** solubility in aqueous solutions of strong acids, alkalis, diluted solutions of salts (Solubility and stability): well soluble; solubility in fats and vegetable oils (Solubility and stability): well soluble; solubility in organic solvents (ethanol, ether, acetone, gasoline, benzene) (Solubility and stability): well soluble; solubility in water (Solubility and stability): well soluble; stability of aqueous solutions (Solubility and stability; aqueous solutions): transparent, stable and can be sterilized by conventional methods; stability in storage (Solubility and stability; not more than 25° C., advisable period two years): stable in storage

**Q.** Which “effect on formation of compensatory hyperfunction and hypertrophy of extrainfarction areas” value [1] does the source give for `O=c1[nH]cnc2c1ncn2[C@@H]1O[C@H](CO)[C@@H](O)[C@H]1O` [inosine, hypoxanthine riboside] here?
**A.** more marked effect

**Q.** And the “cellular infiltration of the zone of necrosis” value [2]?
**A.** enhanced cellular infiltration of the zone of infarction

**Q.** What about the “effect on reparative processes in the zone of necrosis / organization of the post-infarction scar” value [2] of the same molecule?
**A.** substantially less pronounced than the effect of the preparation according to the present invention

**Q.** And the “activity of lysis-ensuring enzymes” value [2]?
**A.** increasing activity of lysis-ensuring enzymes is limited only to the zone of necrosis

**Q.** And the “regaining of hemodynamic characteristics (cardiac and systolic indices, beat work of the heart)” value (central hemodynamics)?
**A.** more pronounced and earlier regaining

**Q.** And the “patients in whom effect on state of blood circulation is greatest” value [3]?
**A.** most pronounced effect on the state of blood circulation in patients with a repeated myocardial infarction
